Experiments:
Format in all cases: cell-based
Conditions in all cases: read-out: LD50
[1] = In vitro cytotoxic activity against human colon tumor-8r cells in culture and LD50 was reported at the end of incubation period of 48 hours.
[2] = In vitro cytotoxic activity against human colon tumor-8r cells in culture and LD50 was reported at the end of incubation period of 72 hours.
[3] = In vitro cytotoxic activity against of human colon tumor-8r cells in culture and LD50 was reported at the end of incubation period of 24 hours.
[4] = In vitro cytotoxic activity against human colon tumor-8r cells in culture and LD50 was reported at the end of incubation period of 24 hours.
[5] = In vitro cytotoxic activity against of human colon tumor-8r cells in culture and LD50 was reported at the end of incubation period of 72 hours.
[6] = In vitro cytotoxic activity against of human colon tumor-8r cells in culture and LD50 was reported at the end of incubation period of 48 hours.

| SMILES | CC50 at 48 h [1] [µM] | CC50 at 72 h [2] [µM] | CC50 at 24 h [3] [µM] | CC50 at 24 h [4] [µM] | CC50 at 72 h [5] [µM] | CC50 at 48 h [6] [µM] |
| --- | --- | --- | --- | --- | --- | --- |
| CC(=O)Oc1cccc2c1CC(C[Se]c1ccccc1)C(=O)O2 (centres undefined) | 240 | 180 | 290 | – | – | – |
| CCCCCCCCCC(=O)Oc1cccc2c1CC(C[Se]c1ccccc1)C(=O)O2 (centres undefined) | 150 | 140 | – | 230 | – | – |
| CCC(=O)Oc1cccc2c1CC(C[Se]c1ccccc1)C(=O)O2 (centres undefined) | – | – | – | 310 | 210 | 250 |
| O=C1Oc2cccc(OC3CCCCO3)c2CC1C[Se]c1ccccc1 (centres undefined) | 190 | 150 | – | 260 | – | – |
| CCCCCCCC(=O)Oc1cccc2c1CC(C[Se]c1ccccc1)C(=O)O2 (centres undefined) | – | – | 300 | – | 180 | 230 |
| O=C1Oc2cccc(O)c2CC1C[Se]c1ccccc1 (centres undefined) | 280 | 230 | – | 330 | – | – |
| CCCC(=O)Oc1cccc2c1CC(C[Se]c1ccccc1)C(=O)O2 (centres undefined) | 270 | 320 | – | 370 | – | – |
| Sc1ncnc2nc[nH]c12 [MERCAPTOPURINE ANHYDROUS] | 350 | 280 | – | 760 | – | – |

From ChEMBL document CHEMBL1122776, “Synthesis and antitumor activity of some aromatic seleno lactones” (J Med Chem, 1984)
